The subject of experiment [1] is adult female Balb/c mice. Briefly: Carageenan-induced paw swelling. The format is in vivo. Conditions: 1 μg/mouse; measured at the 2 hr time point. On the procedure: Carageenan-induced paw swelling was induced using a modification of the methods of Hiltz and Lipton, Peptides 11:979-982 (1990); Vinegar et al., Fed. Proc. 46:118-1.26 (1987); and Vinegar et al., J. Pharmacol. Expt. Therap. 166:96-103 (1969), each of which is incorporated herein by reference. Briefly, adult female Balb/c mice were anesthetized by IP injection of 7 mg/kg ketoamine and 0.6 mg/kg rompun. Foot pad thickness was measured using a spring loaded micrometer (Swiss Precision Instruments). Foot pad thickness was expressed in units of 1/100 inch. After baseline measurements were obtained, mice were injected into a hind foot pad with either 0.2 ml physiologic saline (control) or varying doses of EX-2 or EX-3 in 0.2 ml saline (treated). The first injection was followed immediately by injection of 0.02 ml of 0.15% κ-carageenan (Sigma Chemical Co.; St. Louis, Mo.).
Hind foot pad thickness was measured hourly for six hr, the change in thickness was determined and the percent reduction in swelling due to treatment with EX-2 was calculated.

For experiment [2], the system named is TNF-α. Kind of experiment: Reduction of LPS-induced TNF levels in mice (IP dosing). The settings on record: 150 μg/mouse IP before LPS 5 mg/kg IP; vs untreated control mice. The format is in vivo. As for the experimental part:
Balb/c female mice weighing approximately 20 g were placed into two groups, a control group and a treated group. Five mg/kg of LPS in 0.9% saline was administered by intraperitoneal (IP) injection into the control mice. Mice in the treated group were first injected IP with 30 μg EX-2 or 150 μg EX-3 in saline, then, one mn after EX-2 or EX-3 was administered, the mice received LPS as described for the control group.
Blood samples were collected from the orbital sinus of treated and control mice at various times up to four hr after LPS was administered. The plasma was separated by centrifugation at 3000×g for 5 min, then diluted with four volumes of 1× phosphate buffer saline (pH 7.4) containing 1% bovine serum albumin. A 100 μl sample of serum was assayed by ELISA for TNF-α (Genzyme; Cambridge Mass.).
The mean (±SEM) TNF-α level in six mice from each group was determined and the percent reduction in TNF levels was calculated.

The next experiment has as its system female Balb/c mice. Kind of experiment: Arachidonic acid-induced ear swelling. The settings on record: 100 μg/mouse IP 30 min prior to AA; 60 min after AA application. In kind it is in vivo. As for the experimental part: Experiments were performed using female Balb/c mice weighing 18-23 grams. Saline or 100 μg EX-2 or EX-3 was administered IP, 30 min prior to topical application of arachidonic acid (AA). A 10 μl pipet was used to apply 10 μl AA solution (100 mg/ml ethanol; Calbiochem-Novabiochem; San Diego Calif.) to the inner and outer surfaces of the right ear of each mouse. Ten μl ethanol, alone, was applied to the inner and outer surface of the left ear of each mouse.
Ear thickness was measured with a hand-held spring loaded caliper immediately before and 60 min after AA application. Increase in ear thickness was calculated by subtracting the change observed in the control ear from the change observed in AA-treated ear. The value for each group (saline and control) is the average of the swelling observed in the individual mice in each group. The percent reduction of swelling is based on the swelling observed in the saline control group.

In the next experiment the test system is Male Shelton rabbits. Kind of experiment: Morphine-induced respiratory depression. The format is in vivo. The settings on record: 10 + 20 + 20 μg/kg/rabbit iv; at end of experiment (80 min). On the procedure: Male Shelton rabbits (3-4 kg) were restrained and fitted around the thorax, just behind the front limbs, with a respiration transducer (Model F-RCT; Grass Instruments; Quincy Mass.). The transducer was connected to a grass polygraph via an EKG cable. An intravenous line was established for drug administration by cannulating the marginal ear vein using a 25G butterfly needle.
Rabbit breathing was allowed to stabilize, then. morphine sulfate (2 mg/kg in 0.5 ml saline) was administered by intravenous (iv) injection and respiratory rate and depth were monitored for 10 min. A second dose of morphine was administered, then, after 10 min, EX-2 or EX-3 (10 μg/kg in 0.5 ml saline) was administered, iv, and rabbits were monitored for 20 min. Two additional doses of EX-2 or EX-3 (20 μg/kg in 1.0 ml saline) were administered at 20 min intervals, i.e., 40 min and 60 min after the first morphine injection.
Results were calculated as the percent change from baseline values and are expressed as the difference of the mean value of the treated group minus the mean value of the control group at the end of the experiment (80 min).

The subject of experiment [3] is TNF-α. Kind of experiment: LPS-induced TNF-α levels, oral (gavage) dosing. The format is in vivo, mice. On the procedure:
The ability of orally administered cytokine restraining agents to reduce LPS-induced TNF-α levels also was examined. Balb/c female mice (20 g) were administered 150 μg or 300 μg EX-2, EX-3, EX-5 or EX-6 in 100 μl saline by gavage. Control mice received 100 μl saline, alone. One mn later, 0.1 mg LPS was administered by IP injection. Samples were collected and TNF-α levels were determined as described in Example III, above.
The mean TNF-α levels in the mice from each group (n=9-20) was determined and the percent reduction in TNF-α levels was calculated.

The subject of experiment [4] is adult female Balb/c mice. Kind of experiment: LPS-induced lethality (IP dosing). In kind it is in vivo. The settings on record: 11 × 300 μg/mouse IP (3.3 mg), every 4 hr; 0.6 mg LPS; vs control mice. As for the experimental part:
These experiments were performed based on information reported by Rivier et al., Endocrinology 125:2800-2805 (1989), which is incorporated herein by reference. Adult female Balb/c mice were provided food and water ad libitum. Mice were injected IP every four hr for 40 hr with 30 to 300 μg EX-2, EX-3 or EX-4 in 0.2 ml saline (treated group) or with 0.2 ml saline, alone (control group) (10 mice per group). Immediately following the first injection, 0.6 mg LPS endotoxin in 0.2 ml saline was administered to each mouse. Following LPS injection, EX-2 or saline was administered to the treated mice or the control mice, respectively, every 4 hr for 36 hr.

Experiment [5] has as its system adult female Balb/c mice. Kind of experiment: LPS-induced lethality, oral (gavage) dosing. The format is in vivo. The settings on record: control mice 0%. As for the experimental part:
The LPS-induced lethality studies were performed based on information reported by Rivier et al., supra, 1989. Adult female Balb/c mice were provided food and water ad libitum. Mice were administered 150 μg or 300 μg EX-2, EX-3, EX-5 or EX-6 in 100 μl saline by gavage every 4 hr for 40 hr (total doses of 1.65 mg and 3.3 mg, respectively). Control mice received 100 μl saline, alone. Immediately following the first dose of cytokines restraining agent or saline, 0.6 mg LPS in 0.2 ml saline was administered by IP injection.

[6] abbreviates: 300 μg by gavage before 0.1 mg LPS IP.

Here are results for four molecules from US5760001A, “Cytokine restraining agents and methods of use in pathologies and conditions associated with altered cytokine levels” (Trega Biosciences, Inc., priority 1995, dated 1998).

Where “and” joins values, the source holds several entries; their conditions need not be identical. Equal entries are not always repeated. Square brackets hold non-standard residues; d marks the D form. Peptide text beside a SMILES is read from it.

Consider `CC(=O)N[C@H](C(=O)N[C@@H](CCC(N)=O)C(=O)N[C@@H](Cc1c[nH]cn1)C(=O)N[C@H](Cc1ccccc1)C(=O)N[C@@H](CCCNC(=N)N)C(=O)N[C@H](Cc1c[nH]c2ccccc12)C(=O)NCC(N)=O)C1CCCCC1` [EX-3, Ac-(cyclohexyl)Gly-Gln-His-(D)Phe-Arg-(D)Trp-Gly-NH2], for which the “Reduction in Carageenan-induced Paw Swelling” value in the experiment with adult female Balb/c mice [1] was determined as 49%. In the experiment with TNF-α [2], the “Reduction in TNF levels” value was found to be 56%. Moreover, the “Reduction in arachidonic acid-induced Ear Swelling” value in the experiment on female Balb/c mice was found to be 62%. Further, the “Reduction in Morphine-induced Respiratory Depression” value with Male Shelton rabbits is recorded as 65%. In addition, the figures for the “percent reduction in TNF-α levels” value with TNF-α [3] (150 μg by gavage before 0.1 mg LPS IP) and in the experiment on TNF-α [3] (setting [6]) were 49% and 40%, respectively. The “Inhibition of LPS-induced Lethality (increase in survival)” value in the experiment with adult female Balb/c mice [4] turned out to be 86%.
`CC(=O)N[C@H](Cc1ccccc1)C(=O)N[C@@H](CCCNC(=N)N)C(=O)N[C@H](Cc1c[nH]c2ccccc12)C(N)=O` [EX-4, Ac-(D)Phe-Arg-(D)Trp-NH2]: the “Reduction in TNF levels” value in the experiment with TNF-α [2] was determined as 53%. In the experiment on adult female Balb/c mice [4], the “Inhibition of LPS-induced Lethality (increase in survival)” value is given as 75%.
For `CC(=O)N[C@@H](Cc1c[nH]cn1)C(=O)N[C@H](Cc1ccccc1)C(=O)N[C@@H](CCCNC(=N)N)C(=O)N[C@H](Cc1c[nH]c2ccccc12)C(=O)NCC(N)=O` [EX-5, Ac-His-(D)Phe-Arg-(D)Trp-Gly-NH2] (Ac-H[dF]R[dW]G-NH2), the “percent reduction in TNF-α levels” value with TNF-α [3] (setting [6]) is recorded as 44%. The “increase in survival (LPS-induced lethality)” value with adult female Balb/c mice [5] (3.3 mg total (300 μg every 4 hr for 40 hr)) was 63% and 44%.
Consider `CC(=O)N[C@@H](Cc1c[nH]cn1)C(=O)N[C@H](Cc1ccccc1)C(=O)N[C@@H](CCCNC(=N)N)C(=O)N[C@H](Cc1c[nH]c2ccccc12)C(N)=O` [EX-6, Ac-His-(D)Phe-Arg-(D)Trp-NH2], for which the “increase in survival (LPS-induced lethality)” value in the experiment with adult female Balb/c mice [5] (1.65 mg total (150 μg every 4 hr for 40 hr)) was found to be 68%.
